In paper PMC9023740, “Mucin-Type O-Glycosylation Proximal to β-Secretase Cleavage Site Affects APP Processing and Aggregation Fate” (Frontiers in Chemistry, 2022):

What was measured:
[1] = molecular target: T1, Recombinant human BACE-1 (rhBACE-1) (Homo sapiens, UniProt P56817); experiment: Proteolytic cleavage of APP (glyco)peptides by BACE-1, RP-HPLC peak integration; assay type: biochemical; conditions: 100 μM substrate, 50 nM rhBACE-1, 0.1 M sodium acetate pH 4.0, 24 h, 37°C, dark; RP-HPLC peak integration at 214 nm, averaged from two injections, SD <5%
T1 construct: purchased R&D Systems #ES004 and #931-AS, respectively (so in the source)
Protocol: All APP-based substrates were prepared as 10 mM stocks in DMSO. Before proteolysis, the activity of BACE-1 was verified by the reaction with the fluorogenic BACE-1substrate Mca-[…](Dnp)RR-NH2 ([Koike et al., 1999]) as per the manufacturer’s instructions. For the proteolysis assay, APP-based substrates were diluted in BACE-1 activity buffer (0.1 M sodium acetate, pH 4.0) to the final assay concentration of 100 μM. BACE-1 was diluted to 50 nM final concentration. Reactions were incubated for 24 h at 37°C in the dark. After the incubation period, the enzyme cleavage solutions containing APP-based substrates and BACE-1 were analyzed using the analytical RP-HPLC method on the Aeris C18 column with 0.1% TFA in water (A) and 0.1% TFA in acetonitrile (B) as eluents and 0–60% B as the elution gradient over 30 min with a flow rate of 0.8 ml/min, and detection at 214 nm or the Vydac Denali C18 column with 0.1% TFA in water (A) and 0.1% TFA in acetonitrile (B) as eluents and 0–60% B as the elution gradient over 30 min with a flow rate of 1 ml/min, and detection at 214 nm. The identity of intact and cleaved (N- and C-terminal) fragments of (glyco)peptides in the absence and presence of BACE-1 (β-secretase) was confirmed by MALDI-TOF and their percentages were evaluated by the integration of the RP-HPLC peaks (averaged from two injections).
Glycosylation can alter substrate recognition and impact enzyme activity in either a positive (enhancing) or negative (inhibiting) manner ([Goettig, 2016]; [Goth et al., 2018]). The mucin-type O-linked glycosylation of a protein may not only affect its conformation but also affect its transport and localization in the cell ([Matsuura et al., 1989]; [Chen et al., 2002]). Proteases are highly regulated by post-translational modifications and drive fate, localization, and activity of many proteins ([Bond, 2019]). Certain mutations can also affect the subcellular localization of the cleavage event by crucial proteases and mediate a different cellular mechanism for the protein ([Haass et al., 1995]). […] Therefore, similar enzyme cleavage assays with BACE-1 were set up to explore the effect of the Swedish mutation, length of the amino acid sequence, glycan position and valency on the proteolytic susceptibility of 3–12. BACE1 produced two fragments upon cleavage of (glyco)peptides, for which yields were determined after 24 h treatment. The yields of intact peptide and fragments were evaluated by the RP-HPLC peaks integration (Table 3, and the Supplementary Material S20–S32).
3. Enzyme cleavage assays with APP (glyco)peptides 3-12 by RP-HPLC and MALDI-TOF MS
For the BACE1 enzyme cleavage assay, APP-based (glyco)peptide substrates were diluted in BACE1 activity buffer and incubated with BACE1 for 24 h at 37 °C in the dark. After the incubation period, the enzyme cleavage solutions containing APP-based (glyco)peptide substrates and BACE1 were analyzed using analytical RP-HPLC.
RP-HPLC gradient on Phenomenex Aeris Peptide C18 column (150 x 4.6 mm, 3.6 µm, 100Å):
Eluents were 0.1% TFA in water (A) and 0.1% TFA in acetonitrile (B). The elution gradient was 0-60%B in 30 minutes with a flow rate of 0.8 mL/min. Detection was at λ = 214 nm.
S*/T*= Ser(-α-GalNAc) 1/Thr(-α-GalNAc) 2
(a) APP665-680, 3 in activity buffer
(b) APP665-680 (3) + BACE1 in activity buffer […]

[2] = CD spectroscopy, secondary structure content by BeStSel; assay type: physicochemical; conditions: for RC (%) random coil / α-H (%) α-helix / β-AP (%) anti-parallel β-sheet / β-P (%) parallel β-sheet / β-T (%) β-turn: CD, BeStSel, 0.065 mg/ml, 25°C
Protocol: All (glyco)peptides were analyzed for their secondary structure using circular dichroism (CD) spectroscopy on a Jasco-810 spectropolarimeter (Jasco, Easton, MD) in three solvent systems: water, 10 mM sodium phosphate buffer (pH 7.4), and 50% trifluoroethanol (TFE) in water (v/v) mixture. The CD spectra were recorded using a quartz cell of 1 mm optical path length over a wavelength range of […] with a scanning speed of 100 nm/min and a response time of 4 s at 25°C. A concentration of 0.065 mg/ml, determined using the analytical RP-HPLC method, gave the […] signal-to-noise ratio for all (glyco)peptides. All spectra were baseline-corrected to account for the signal contribution from solvent and then converted into molar ellipticity (deg cm^2 dmol^−1) ([Sreerama and Woody, 2000]). Lastly, the percentages of all secondary structures were determined using the BeStSel method ([Micsonai et al., 2018]; [Singh et al., 2021]).
To study the role of O-glycosylation on the conformation of APP glycopeptides, circular dichroism (CD) spectroscopy was used to probe the secondary structure in three different solvents, water, sodium phosphate buffer (10 mM, pH 7.4), and 50% trifluoroethanol (TFE) in water (v/v) (Figure 1). The spectra were further analysed for secondary structure estimations by Beta Structure Selection (BeStSel) method, specifically designed for the analysis of beta sheet-rich proteins (Table 2) ([Micsonai et al., 2015], [2018]).

[3] = (B) 10 mM sodium phosphate buffer, pH 7.4

T1 sequence (P56817 46-457 limits assumed): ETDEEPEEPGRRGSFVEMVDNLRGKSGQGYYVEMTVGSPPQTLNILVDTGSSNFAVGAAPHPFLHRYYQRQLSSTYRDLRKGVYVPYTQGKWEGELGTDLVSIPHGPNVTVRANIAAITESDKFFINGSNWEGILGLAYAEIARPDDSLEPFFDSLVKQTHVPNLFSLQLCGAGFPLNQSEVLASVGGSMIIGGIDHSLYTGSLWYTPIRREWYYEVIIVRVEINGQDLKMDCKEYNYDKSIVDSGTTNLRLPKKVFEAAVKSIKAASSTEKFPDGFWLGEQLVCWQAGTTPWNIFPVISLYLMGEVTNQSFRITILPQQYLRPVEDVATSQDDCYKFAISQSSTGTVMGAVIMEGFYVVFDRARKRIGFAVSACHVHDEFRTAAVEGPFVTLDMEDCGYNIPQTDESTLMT

BACE-1 activity, Cleaved (%) [1] [%] | BACE-1 activity, Recovered (%) [1] [%] | Compound | other results
79.7 | 20.3 | CC[C@H](C)[C@H](N)C(=O)N[C@@H](CCCCN)C(=O)N[C@H](C(=O)N[C@@H](CCC(=O)O)C(=O)N[C@@H](CCC(=O)O)C(=O)N[C@H](C(=O)N[C@@H](CO)C(=O)N[C@@H](CCC(=O)O)C(=O)N[C@H](C(=O)N[C@@H](CC(N)=O)C(=O)N[C@@H](CC(C)C)C(=O)N[C@@H](CC(=O)O)C(=O)N[C@@H](C)C(=O)N[C@@H](CCC(=O)O)C(=O)N[C@@H](Cc1ccccc1)C(=O)N[C@@H](CCCNC(=N)N)C(=O)N[C@@H](Cc1c[nH]cn1)C(=O)N[C@@H](CC(=O)O)C(=O)N[C@@H](CO)C(=O)NCC(N)=O)C(C)C)[C@@H](C)CC)[C@@H](C)O [compound 10] | –
98.1 | 1.90 | CC[C@H](C)[C@H](N)C(=O)N[C@@H](CCCCN)C(=O)N[C@H](C(=O)N[C@@H](CCC(=O)O)C(=O)N[C@@H](CCC(=O)O)C(=O)N[C@H](C(=O)N[C@@H](CO)C(=O)N[C@@H](CCC(=O)O)C(=O)N[C@H](C(=O)N[C@@H](CC(N)=O)C(=O)N[C@@H](CC(C)C)C(=O)N[C@@H](CC(=O)O)C(=O)N[C@@H](C)C(=O)N[C@@H](CCC(=O)O)C(=O)N[C@@H](Cc1ccccc1)C(=O)N[C@@H](CCCNC(=N)N)C(=O)N[C@@H](Cc1c[nH]cn1)C(=O)N[C@@H](CC(=O)O)C(=O)N[C@@H](CO)C(=O)NCC(N)=O)C(C)C)[C@@H](C)CC)[C@@H](C)O[C@H]1O[C@H](CO)[C@H](O)[C@H](O)[C@H]1NC(C)=O [compound 11] | –
96.1 | 3.90 | CC[C@H](C)[C@H](N)C(=O)N[C@@H](CCCCN)C(=O)N[C@H](C(=O)N[C@@H](CCC(=O)O)C(=O)N[C@@H](CCC(=O)O)C(=O)N[C@H](C(=O)N[C@@H](CO[C@H]1O[C@H](CO)[C@H](O)[C@H](O)[C@H]1NC(C)=O)C(=O)N[C@@H](CCC(=O)O)C(=O)N[C@H](C(=O)N[C@@H](CC(N)=O)C(=O)N[C@@H](CC(C)C)C(=O)N[C@@H](CC(=O)O)C(=O)N[C@@H](C)C(=O)N[C@@H](CCC(=O)O)C(=O)N[C@@H](Cc1ccccc1)C(=O)N[C@@H](CCCNC(=N)N)C(=O)N[C@@H](Cc1c[nH]cn1)C(=O)N[C@@H](CC(=O)O)C(=O)N[C@@H](CO)C(=O)NCC(N)=O)C(C)C)[C@@H](C)CC)[C@@H](C)O[C@H]1O[C@H](CO)[C@H](O)[C@H](O)[C@H]1NC(C)=O [compound 12] | –
4.12 | 95.9 | IKT*EEIS*EVKM∼DAEFRHDSG [compound 9, native APP 661-680 glycopeptide with O-GalNAc on Thr^663 and Ser^667] | RC (%) random coil ([2]; (A) water): 22.4%; α-H (%) α-helix ([2]; (A) water): 12.8%; β-AP (%) anti-parallel β-sheet ([2]; (A) water): 48.2%; β-P (%) parallel β-sheet ([2]; (A) water): 0.0%; β-T (%) β-turn ([2]; (A) water): 16.6%; RC (%) random coil [2, 3]: 48.7%; α-H (%) α-helix [2, 3]: 9.5%; β-AP (%) anti-parallel β-sheet [2, 3]: 24.6%; β-P (%) parallel β-sheet [2, 3]: 0.0%; β-T (%) β-turn [2, 3]: 17.1%; RC (%) random coil ([2]; (C) TFE/water = 1:1 (v/v)): 0.0%; α-H (%) α-helix ([2]; (C) TFE/water = 1:1 (v/v)): 94.4%; β-AP (%) anti-parallel β-sheet ([2]; (C) TFE/water = 1:1 (v/v)): 0.0%; β-P (%) parallel β-sheet ([2]; (C) TFE/water = 1:1 (v/v)): 0.0%; β-T (%) β-turn ([2]; (C) TFE/water = 1:1 (v/v)): 5.6%; β-structure (anti-parallel β-sheet, parallel β-sheet, and β-turn) ([2]; water, sum of BeStSel contents): 64.8%

The remaining lines, values behind:

Compound | BACE-1 activity, Cleaved (%) [1] [%] | BACE-1 activity, Recovered (%) [1] [%] | other results
CC[C@H](C)[C@H](NC(=O)[C@@H](N)CCC(=O)O)C(=O)N[C@@H](CO)C(=O)N[C@@H](CCC(=O)O)C(=O)N[C@H](C(=O)N[C@@H](CCCCN)C(=O)N[C@@H](CCSC)C(=O)N[C@@H](CC(=O)O)C(=O)N[C@@H](C)C(=O)N[C@@H](CCC(=O)O)C(=O)N[C@@H](Cc1ccccc1)C(=O)N[C@@H](CCCNC(=N)N)C(=O)N[C@@H](Cc1c[nH]cn1)C(=O)N[C@@H](CC(=O)O)C(=O)N[C@@H](CO)C(=O)NCC(N)=O)C(C)C [compound 3] | 4.48 | 95.5 | –
CC[C@H](C)[C@H](NC(=O)[C@@H](N)CCC(=O)O)C(=O)N[C@@H](CO[C@H]1O[C@H](CO)[C@H](O)[C@H](O)[C@H]1NC(C)=O)C(=O)N[C@@H](CCC(=O)O)C(=O)N[C@H](C(=O)N[C@@H](CCCCN)C(=O)N[C@@H](CCSC)C(=O)N[C@@H](CC(=O)O)C(=O)N[C@@H](C)C(=O)N[C@@H](CCC(=O)O)C(=O)N[C@@H](Cc1ccccc1)C(=O)N[C@@H](CCCNC(=N)N)C(=O)N[C@@H](Cc1c[nH]cn1)C(=O)N[C@@H](CC(=O)O)C(=O)N[C@@H](CO)C(=O)NCC(N)=O)C(C)C [compound 4] | 1.40 | 98.6 | –
CC[C@H](C)[C@H](NC(=O)[C@@H](N)CCC(=O)O)C(=O)N[C@@H](CO)C(=O)N[C@@H](CCC(=O)O)C(=O)N[C@H](C(=O)N[C@@H](CC(N)=O)C(=O)N[C@@H](CC(C)C)C(=O)N[C@@H](CC(=O)O)C(=O)N[C@@H](C)C(=O)N[C@@H](CCC(=O)O)C(=O)N[C@@H](Cc1ccccc1)C(=O)N[C@@H](CCCNC(=N)N)C(=O)N[C@@H](Cc1c[nH]cn1)C(=O)N[C@@H](CC(=O)O)C(=O)N[C@@H](CO)C(=O)NCC(N)=O)C(C)C [compound 5] | 96.2 | 3.82 | –
CC[C@H](C)[C@H](NC(=O)[C@@H](N)CCC(=O)O)C(=O)N[C@@H](CO[C@H]1O[C@H](CO)[C@H](O)[C@H](O)[C@H]1NC(C)=O)C(=O)N[C@@H](CCC(=O)O)C(=O)N[C@H](C(=O)N[C@@H](CC(N)=O)C(=O)N[C@@H](CC(C)C)C(=O)N[C@@H](CC(=O)O)C(=O)N[C@@H](C)C(=O)N[C@@H](CCC(=O)O)C(=O)N[C@@H](Cc1ccccc1)C(=O)N[C@@H](CCCNC(=N)N)C(=O)N[C@@H](Cc1c[nH]cn1)C(=O)N[C@@H](CC(=O)O)C(=O)N[C@@H](CO)C(=O)NCC(N)=O)C(C)C [compound 6] | 93.0 | 7.02 | –
CC[C@H](C)[C@H](N)C(=O)N[C@@H](CCCCN)C(=O)N[C@H](C(=O)N[C@@H](CCC(=O)O)C(=O)N[C@@H](CCC(=O)O)C(=O)N[C@H](C(=O)N[C@@H](CO)C(=O)N[C@@H](CCC(=O)O)C(=O)N[C@H](C(=O)N[C@@H](CCCCN)C(=O)N[C@@H](CCSC)C(=O)N[C@@H](CC(=O)O)C(=O)N[C@@H](C)C(=O)N[C@@H](CCC(=O)O)C(=O)N[C@@H](Cc1ccccc1)C(=O)N[C@@H](CCCNC(=N)N)C(=O)N[C@@H](Cc1c[nH]cn1)C(=O)N[C@@H](CC(=O)O)C(=O)N[C@@H](CO)C(=O)NCC(N)=O)C(C)C)[C@@H](C)CC)[C@@H](C)O [compound 7] | 3.40 | 96.6 | –
